Assay results from article PMC7966987, “Insights into the catalytic properties of the mitochondrial rhomboid protease PARL” (The Journal of Biological Chemistry, 2021).

What was measured:
human PARLΔ55 [1] = target: T1, human PARLΔ55 (Homo sapiens, UniProt Q9H300); test: IQ-peptide substrate cleavage kinetics, full-length PARLΔ55 in detergent; format: biochemical; settings: for Km / kcat (turnover rate) / kcat/KM (catalytic efficiency): PARLΔ55 0.8 μM in 0.1% DDM with CL, 50 mM Tris-HCl pH 7.0, 150 mM NaCl, 10% glycerol, 5% DMSO, 37 °C, fluorescence, mean ± SEM
T1 construct: to generate full-length (FL) starting at residue 55 or the β-cleavage form truncated at residue 77; GFP-hexahistidine (behind a TEV cleavage site) (C, cleaved yes); made in house; host or cells: Pichia pastoris
T1 sequence (Q9H300 56-379): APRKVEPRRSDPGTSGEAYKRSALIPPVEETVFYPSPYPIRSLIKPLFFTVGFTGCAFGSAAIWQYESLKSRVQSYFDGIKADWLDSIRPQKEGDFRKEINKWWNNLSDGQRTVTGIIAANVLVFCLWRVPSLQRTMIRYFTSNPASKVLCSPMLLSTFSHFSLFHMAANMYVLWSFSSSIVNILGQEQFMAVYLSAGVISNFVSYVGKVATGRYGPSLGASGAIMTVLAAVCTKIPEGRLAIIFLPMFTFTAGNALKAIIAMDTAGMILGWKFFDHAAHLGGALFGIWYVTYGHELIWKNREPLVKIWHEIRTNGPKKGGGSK
Excerpt: To further evaluate the cleavage of other known substrates of PARL, we adopted a more facile system to examine cleavage of multiple substrates and generated internally quenched (IQ) peptide substrates ([25], [36], [37], [38]) based on the amino acids flanking the PARL cleavage sites of PINK1 ([39]), PGAM5 ([8]), and Smac/Diablo ([11]). […] The assay allowed us to determine the catalytic parameters for the three primary PARL substrates and examine the substrate specificity (Fig. 2, Tables S2–S4).
(§1) Assays with FRET-PINK1^70–134 were conducted as previously described ([26]). For EDANS/Dabcyl 10-mer IQ peptides (PINK1, PGAM5, Smac/Diablo), lyophilized peptides were initially dissolved in DMSO to obtain a stock solution. The IQ peptide substrates in a concentration range of 0.1–70 μM were incubated with activity assay buffer (50 mM Tris-HCl pH 7.0, 150 mM NaCl, 10% glycerol, 0.1% DDM) in a 384-well black-bottomed plate at 37 °C for 30 min in a multiwell plate reader (SynergyMx, BioTek). For all concentrations of IQ peptide, the DMSO was kept constant at 5%. Following preincubation, PARL was added to a final concentration of 0.8 μM to initiate the cleavage reaction. Fluorescence readings were taken every 3 min over a 3 h time course at ƛex = 336 nm and ƛem = 490 nm. The initial velocity was determined from the fluorescence readings over the time course. For each substrate concentration, a no-enzyme control was subtracted to eliminate background fluorescence changes not related to substrate cleavage. Relative fluorescence units were converted to concentration (μM) by determining the maximum change in fluorescence observed for each substrate concentration when fully digested. GraphPad Prism software was used for Michaelis–Menten analysis of kinetic curves. All kinetic data were obtained using at least three biological replicates (different enzyme preparations) with technical duplicates for each experiment. For kinetic measurements in detergent with all three substrates, the activity assays were repeated at least five times. In addition, after each protease purification, the quality control of purified PARL was controlled by measuring its enzymatic activity. Minimum of three experimental replicates with two technical replicates were used for data analysis.

human PARLΔ55 [2] = target: T1, human PARLΔ55; test: IQ-peptide substrate cleavage kinetics, PARLΔ55 in proteoliposomes; format: biochemical; settings: PARLΔ55 in PLs (E. coli polar lipids), 50 mM Tris-HCl pH 7.0, 150 mM NaCl, 10% glycerol, no DDM, 37 °C; mean ± SEM
Excerpt: To assess the activity of recombinant PARL toward known substrates in a lipid bilayer, full-length and β-truncated PARL were reconstituted in proteoliposomes (PLs) using Escherichia coli lipids that closely resemble the composition of the IMM ([31]). We determined that the EDANS/Dabcyl - FRET tags prevented incorporation of the substrates into PL; however, the substrate could still be cleaved since the active site is proposed to be near the lipid/water interface ([40], [41]) analogous to bacterial rhomboid proteases (Fig. 1). To calculate the specific activity of the protease, we quantified the fraction of PARL in the PLs with an outward facing active site using a membrane […] activity-based TAMRA-labeled fluorophosphonate probe ([42]). […] These values were used to calculate specific activity of the PARL protease. Next, we compared cleavage of three IQ-peptide substrates by reconstituted full-length mature PARLΔ55 and the β-truncated form, PARLΔ77 (Fig. 3, Tables S5 and S6).
as §1
E. coli polar lipids (Avanti), 400 μg in chloroform, were dried under nitrogen stream in a glass tube to yield a thin film of lipid. The tube was incubated overnight in a desiccator to completely remove all traces of solvent. In total, 50 μl of water and DDM detergent was added to the lipid film for resuspension at room temperature for 10 min, followed by the addition of purified PARL (400 μg) in 50 mM Tris-HCl, pH 8.0, 150 mM NaCl, 20% glycerol, 0.1% DDM, to yield the final weight ratio of 1 PARL:1 lipid:2 detergent. The detergent was slowly removed by the addition of SM2 Biobeads (Bio-Rad) while stirring on ice for 6 h to allow for the generation of proteoliposomes (PL); the process was controlled by the regimen of Biobead addition. To purify the PL, 50%:20% sucrose density gradient ultracentrifugation was used. A TAMRA probe (ThermoFisher) was used to determine the orientation of reconstituted PARL, which specifically and covalently labels serine residues of an enzymatically active serine protease. In total, 2 μM of TAMRA probe was added to PL samples and incubated for 1 h, allowing the TAMRA probe to label only the outward-facing accessible active sites. […]

Substance | substrate turnover with PARLΔ55 compared with PARLΔ77 (human PARLΔ55 [1]) | Km (human PARLΔ55 [1]) | kcat (turnover rate) (human PARLΔ55 [1]) | kcat/KM (catalytic efficiency) (human PARLΔ55 [1]) | Km (human PARLΔ55 [2]) | kcat (turnover rate) (human PARLΔ55 [2]) | kcat/KM (catalytic efficiency) (human PARLΔ55 [2])
(DABCYL)-AVFLAFGLGL-Glu(EDANS) [IQ-PINK1^99–108, internally quenched DABCYL/EDANS peptide substrate based on PINK1 PARL cleavage site] | significantly lower substrate turnover | 1900 ± 400 nM | 0.42 ± 0.03 h⁻¹ | 0.22 ± 0.08 µM⁻¹ h⁻¹ | 13 ± 2 µM | 9 ± 0.6 h⁻¹ | 0.7 ± 0.1 µM⁻¹ h⁻¹
(DABCYL)-AVFLSAVAVG-Glu(EDANS) [IQ-PGAM5^20–29, internally quenched DABCYL/EDANS peptide substrate based on PGAM5 PARL cleavage site] | significantly lower substrate turnover | 470 ± 70 nM | 0.46 ± 0.02 h⁻¹ | 1.0 ± 0.3 µM⁻¹ h⁻¹ | 1.3 ± 0.2 µM | 4.8 ± 1.2 h⁻¹ | 3.6 ± 0.6 µM⁻¹ h⁻¹
(DABCYL)-GVT LCAVPIA-Glu(EDANS) [IQ-Smac/Diablo^51–60, internally quenched DABCYL/EDANS peptide substrate based on Smac/Diablo PARL cleavage site] | – | 6000 ± 1000 nM | 1.3 ± 0.1 h⁻¹ | 0.3 ± 0.1 µM⁻¹ h⁻¹ | 3.9 ± 0.7 µM | 5.5 ± 0.3 h⁻¹ | 1.4 ± 0.3 µM⁻¹ h⁻¹
